Laboratory results: patent US11708348B2, “Protease inhibitors for treatment of coronavirus infections” (The Scripps Research Institute, priority 2021, dated 2023)
Counter-ions that a name gives are not always drawn. Like-named read-outs stand apart in the source and are kept apart here.

Tested on: SARS-CoV-2 strain USA-WA1/2020
Assay: microbe, parasite or virus in culture
Format: cell-based
Conditions: Severe acute respiratory syndrome coronavirus 2, HeLa-ACE2, 24 h, read-out: EC50, uM (Hela)
[1] = HeLa-ACE2 cells, SARS-CoV-2 infection, 24 h, class symbols
[2] = HeLa-ACE2 cells, SARS-CoV-2 infection, 24 h, cells given as a bound

`CC(C)C[C@H](NC(=O)C(=O)Nc1ccccc1F)C(=O)N[C@H](Cc1cnc[nH]1)C(=O)COc1c(F)c(F)cc(F)c1F` [Compound 136, Nl-((S)-1-(((R)-1-(1H-imidazol-5-yl)-3-oxo-4-(2,3,5,6-tetrafluorophenoxy)butan-2-yl)amino)-4-methyl-1-oxopentan-2-yl)-N2-(2-fluorophenyl)oxalamide] was tested, and the EC50 [1] was 0.5 to 1 µM.

Work on `CC(C)C[C@H](NC(=O)OCC1CCCC1)C(=O)N[C@@H](C[C@@H]1CCNC1=O)C(=O)COc1c(F)c(F)cc(F)c1F` [Compound 137, cyclopentylmethyl ((S)-4-methyl-1-oxo-1-(((S)-3-oxo-1-((S)-2-oxopyrrolidin-3-yl)-4-(2,3,5,6-tetrafluorophenoxy)butan-2-yl)amino)pentan-2-yl)carbamate] yielded an EC50 [1] of 0.5 to 1 µM.

In the case of `CC(C)C[C@H](NC(=O)OCCc1cccc(Cl)c1)C(=O)N[C@@H](C[C@@H]1CCNC1=O)C(=O)COc1c(F)c(F)cc(F)c1F` [Compound 138, 3-chlorophenethyl ((S)-4-methyl-1-oxo-1-(((S)-3-oxo-1-((S)-2-oxopyrrolidin-3-yl)-4-(2,3,5,6-tetrafluorophenoxy)butan-2-yl)amino)pentan-2-yl)carbamate], the EC50 [2] is reported as greater than 1 µM.

Molecule `CC(C)C[C@H](NC(=O)OC/C=C/c1cccc(Cl)c1)C(=O)N[C@@H](C[C@@H]1CCNC1=O)C(=O)COc1c(F)c(F)cc(F)c1F` [Compound 139, (E)-3-(3-chlorophenyl)allyl ((S)-4-methyl-1-oxo-1-(((S)-3-oxo-1-((S)-2-oxopyrrolidin-3-yl)-4-(2,3,5,6-tetrafluorophenoxy)butan-2-yl)amino)pentan-2-yl)carbamate] has an EC50 [2] greater than 1 µM.

`CC(=O)N1CCC(NC(=O)C(=O)N[C@@H](CC(C)C)C(=O)N[C@@H](C[C@@H]2CCNC2=O)C(=O)COc2c(F)c(F)cc(F)c2F)CC1` [Compound 140, Nl-(l-acetylpiperidin-4-yl)-N2-((S)-4-methyl-1-oxo-1-(((S)-3-oxo-1-((S)-2-oxopyrrolidin-3-yl)-4-(2,3,5,6-tetrafluorophenoxy)butan-2-yl)amino)pentan-2-yl)oxalamide] gave an EC50 ([…], cells given as a bound) greater than 1 µM.

With `CC(C)C[C@H](NC(=O)C(=O)Nc1ccccc1F)C(=O)N[C@@H](C[C@@H]1CCNC1=O)C(=O)COc1cc(C(F)(F)F)on1` [Compound 141, N1-(2-fluorophenyl)-N2-((S)-4-methyl-1-oxo-1-(((S)-3-oxo-1-((S)-2-oxopyrrolidin-3-yl)-4-((5-(trifluoromethyl)isoxazol-3-yl)oxy)butan-2-yl)amino)pentan-2-yl)oxalamide] the EC50 [1] was 0.5 to 1 µM.

`CC(C)C[C@H](NC(=O)C(=O)Nc1ccccc1F)C(=O)N[C@@H](CCCCN)C(=O)COc1c(F)c(F)cc(F)c1F` [Compound 142, N^1—((S)-1-(((S)-7-amino-2-oxo-1-(2,3,5,6-tetrafluorophenoxy)heptan-3-yl)amino)-4-methyl-1-oxopentan-2-yl)-N^2-(2-fluorophenyl)oxalamide hydrochloride] gave an EC50 of less than 0.05 µM.

`COCc1ccccc1NC(=O)C(=O)N[C@@H](CC(C)C)C(=O)N[C@@H](C[C@@H]1CCNC1=O)C(=O)COc1c(F)c(F)cc(F)c1F` [Compound 143, N1-(2-(methoxymethyl)phenyl)-N2-((S)-4-methyl-1-oxo-1-(((S)-3-oxo-1-((S)-2-oxopyrrolidin-3-yl)-4-(2,3,5,6-tetrafluorophenoxy)butan-2-yl)amino)pentan-2-yl)oxalamide] showed an EC50 [1] of 0.05 to 0.2 µM.

Work on `CC(C)C[C@H](NC(=O)Cc1cccc(Cl)c1)C(=O)N[C@@H](C[C@@H]1CCNC1=O)C(=O)COc1c(F)c(F)cc(F)c1F` [Compound 144, (S)-2-(2-(3-chlorophenyl)acetamido)-4-methyl-N—((S)-3-oxo-1-((S)-2-oxopyrrolidin-3-yl)-4-(2,3,5,6-tetrafluorophenoxy)butan-2-yl)pentanamide] yielded an EC50 [2] greater than 1 µM.

`CC(C)C[C@H](NC(=O)C(=O)N[C@H]1CCCc2ccccc21)C(=O)N[C@@H](C[C@@H]1CCNC1=O)C(=O)COc1c(F)c(F)cc(F)c1F` [Compound 145, N^1—((S)-4-methyl-1-oxo-1-(((S)-3-oxo-1-((S)-2-oxopyrrolidin-3-yl)-4-(2,3,5,6-tetrafluorophenoxy)butan-2-yl)amino)pentan-2-yl)-N^2—((S)-1,2,3,4-tetrahydronaphthalen-1-yl)oxalamide] gave an EC50 [1] of 0.2 to 0.5 µM.

Work on `CC(C)C[C@H](NC(=O)[C@H](O)c1cccc(Cl)c1)C(=O)N[C@@H](C[C@@H]1CCNC1=O)C(=O)COc1c(F)c(F)cc(F)c1F` [Compound 146, (S)-2-((R)-2-(3-chlorophenyl)-2-hydroxyacetamido)-4-methyl-N-((S)-3-oxo-1-((S)-2-oxopyrrolidin-3-yl)-4-(2,3,5,6-tetrafluorophenoxy)butan-2-yl)pentanamide] yielded an EC50 [1] of 0.05 to 0.2 µM.

`CC(C)C[C@H](NC(=O)C(=O)N[C@@H]1CCCc2ccccc21)C(=O)N[C@@H](C[C@@H]1CCNC1=O)C(=O)COc1c(F)c(F)cc(F)c1F` [Compound 147, N1-((S)-4-methyl-1-oxo-1-(((S)-3-oxo-1-((S)-2-oxopyrrolidin-3-yl)-4-(2,3,5,6-tetrafluorophenoxy)butan-2-yl)amino)pentan-2-yl)-N2-((R)-1,2,3,4-tetrahydronaphthalen-1-yl)oxalamide] showed an EC50 [1] of 0.5 to 1 µM.

With `Cc1ccccc1NC(=O)C(=O)N[C@@H](Cc1ccccn1)C(=O)N[C@@H](C[C@@H]1CCNC1=O)C(=O)COc1c(F)c(F)cc(F)c1F` [Compound 148, N1-((S)-1-oxo-1-(((S)-3-oxo-1-((S)-2-oxopyrrolidin-3-yl)-4-(2,3,5,6-tetrafluorophenoxy)butan-2-yl)amino)-3-(pyridin-2-yl)propan-2-yl)-N2-(o-tolyl)oxalamide] the EC50 [1] was 0.05 to 0.2 µM.

Work on `CC(C)C[C@H](NC(=O)C(=O)N1CCCc2ccccc21)C(=O)N[C@@H](C[C@@H]1CCNC1=O)C(=O)COc1c(F)c(F)cc(F)c1F` [Compound 149, (S)-2-(2-(3,4-dihydroquinolin-1(2H)-yl)-2-oxoacetamido)-4-methyl-N-((S)-3-oxo-l-((S)-2-oxopyrrolidin-3-yl)-4-(2,3,5,6-tetrafluorophenoxy)butan-2-yl)pentanamide] yielded an EC50 [1] of 0.05 to 0.2 µM.

`CC(C)C[C@H](NC(=O)O[C@H]1CO[C@H]2OCC[C@H]21)C(=O)N[C@@H](C[C@@H]1CCNC1=O)C(=O)COc1c(F)c(F)cc(F)c1F` [Compound 150, (3R,3aS,6aR)-hexahydrofuro[2,3-b]furan-3-yl ((S)-4-methyl-1-oxo-1-(((S)-3-oxo-1-((S)-2-oxopyrrolidin-3-yl)-4-(2,3,5,6-tetrafluorophenoxy)butan-2-yl)amino)pentan-2-yl)carbamate] was tested, and the EC50 [1] was 0.2 to 0.5 µM.

`CC(C)C[C@H](NC(=O)C(=O)NC1CCC(F)(F)CC1)C(=O)N[C@@H](C[C@@H]1CCNC1=O)C(=O)COc1c(F)c(F)cc(F)c1F` [Compound 151, N^1-(4,4-difluorocyclohexyl)-N^2—((S)-4-methyl-1-oxo-1-(((S)-3-oxo-1-((S)-2-oxopyrrolidin-3-yl)-4-(2,3,5,6-tetrafluorophenoxy)butan-2-yl)amino)pentan-2-yl)oxalamide] was tested, and the EC50 [1] was 0.05 to 0.2 µM.

`Cc1cccc(C)c1NC(=O)C(=O)N[C@@H](CC(C)C)C(=O)N[C@@H](C[C@@H]1CCNC1=O)C(=O)COC(F)(F)F` [Compound 152, N1-(2,6-dimethylphenyl)-N2-((S)-4-methyl-1-oxo-1-(((S)-3-oxo-1-((S)-2-oxopyrrolidin-3-yl)-4-(trifluoromethoxy)butan-2-yl)amino)pentan-2-yl)oxalamide] gave an EC50 [1] of less than 0.05 µM.

`CC(C)C[C@H](NC(=O)c1ccc2c(c1)OC(F)(F)O2)C(=O)N[C@@H](C[C@@H]1CCNC1=O)C(=O)COC(F)(F)F` [Compound 153, 2,2-difluoro-N-((S)-4-methyl-1-oxo-1-(((S)-3-oxo-1-((S)-2-oxopyrrolidin-3-yl)-4-(trifluoromethoxy)butan-2-yl)amino)pentan-2-yl)benzo[d][l,3]dioxole-5-carboxamide] gave an EC50 [1] of less than 0.05 µM.

`COc1ccc(C(C)=O)cc1CC(=O)N[C@@H](CC(C)C)C(=O)N[C@@H](C[C@@H]1CCNC1=O)C(=O)COc1c(F)c(F)cc(F)c1F` [Compound 154, (S)-2-(2-(5-acetyl-2-methoxyphenyl)acetamido)-4-methyl-N—((S)-3-oxo-1-((S)-2-oxopyrrolidin-3-yl)-4-(2,3,5,6-tetrafluorophenoxy)butan-2-yl)pentanamide] gave an EC50 [1] of less than 0.05 µM.

`CC(C)C[C@H](NC(=O)c1nc2ccccc2[nH]1)C(=O)N[C@@H](C[C@@H]1CCNC1=O)C(=O)COC(F)(F)F` [Compound 156, N-((S)-4-methyl-1-oxo-1-(((S)-3-oxo-1-((S)-2-oxopyrrolidin-3-yl)-4-(trifluoromethoxy)butan-2-yl)amino)pentan-2-yl)-1H-benzo[d]imidazole-2-carboxamide] gave an EC50 [1] of less than 0.05 µM.

With `COc1cccc2[nH]c(C(=O)N[C@@H](CC(C)C)C(=O)N[C@@H](C[C@@H]3CCNC3=O)C(=O)COC(C(F)(F)F)C(F)(F)F)cc12` [Compound 157] the EC50 [2] was greater than 1 µM.

With `COc1cccc2[nH]c(C(=O)N[C@@H](CC(C)C)C(=O)N[C@@H](C[C@@H]3CCNC3=O)C(=O)COC(F)(F)F)cc12` [Compound 158, 4-methoxy-N—((S)-4-methyl-1-oxo-1-(((S)-3-oxo-1-((S)-2-oxopyrrolidin-3-yl)-4-(trifluoromethoxy)butan-2-yl)amino)pentan-2-yl)-1H-indole-2-carboxamide] the EC50 [1] was less than 0.05 µM.

`CC(C)C[C@H](NC(=O)C(=O)Nc1c(C(C)C)cccc1C(C)C)C(=O)N[C@@H](C[C@@H]1CCNC1=O)C(=O)COC(F)(F)F` [Compound 159, Nl-(2,6-diisopropylphenyl)-N2-((S)-4-methyl-1-oxo-1-(((S)-3-oxo-1-((S)-2-oxopyrrolidin-3-yl)-4-(trifluoromethoxy)butan-2-yl)amino)pentan-2-yl)oxalamide] showed an EC50 [1] of less than 0.05 µM.

Work on `O=C(N[C@@H](CC1CC1)C(=O)N[C@@H](C[C@@H]1CCNC1=O)C(=O)COC(F)(F)F)c1cc(-c2ccccc2F)on1` [Compound 160, N-((S)-3-cyclopropyl-1-oxo-1-(((S)-3-oxo-1-((S)-2-oxopyrrolidin-3-yl)-4-(trifluoromethoxy)butan-2-yl)amino)propan-2-yl)-5-(2-fluorophenyl)isoxazole-3-carboxamide] yielded an EC50 [1] of less than 0.05 µM.
